# How the values were obtained:
# [1] = system: tobacco-smoke-induced airway inflammation; experiment: Tobacco smoke model of airway inflammation in mice; type: in vivo, female C3H mice; details: for IL-1α / MIP-1α / Neutrophils: mean ± s.e.m.
# Description: Vehicle and test articles are delivered by intratracheal instillation in 10% ethanol water to animals anesthetized with 3-5% isoflurane (n=8 animals per test article group). All compounds will be delivered on a daily (5 days per week) schedule for 3 weeks during the smoke exposures. Mice were exposed to cigarette smoke for 6 hours per day, 5 days per week for 3 weeks, in H1000 or H2000 chambers. Type 2R4F research cigarettes (Kentucky Tobacco Research and Development Center) were used in the study. Total particulate material (TPM) exposure was kept at […] for the first week to allow animals to reduce adverse effects during adaptation to smoke exposure. TPM exposure was maintained between 100 and 250 mg TPM/m^3 during the remainder of the study. After 3 weeks, animals were euthanized and bronchoalveolar lavage fluid was obtained for cell differentials and cytokine analysis by Luminex multiplex immunoassay.
# [2] = Drug levels in plasma, BALF and lung after IT administration in the rat; details: IT
# Description: Compounds of Examples 52 and 83 were formulated for intratracheal (IT) dosing in 10% EtOH, 90% Sterile Water, and dosed in male Sprague-Dawley rats at 3 mg/kg (Example 52) and 1 mg/kg (Example 83). Each dosing group consisted of 3 male, naïve purebred Sprague-Dawley rats. At dosing, the animals weighed ˜0.30 kg. The animals were fasted overnight prior to dose administration and up to 2 hr after dosing. The compounds were administered IT using a Penn Century Microsprayer (Model 1A-1B).
# Blood samples were collected at 0.5, 2, and 4 hours post-dose. Each blood sample (0.5-0.6 mL per sample) was collected via the orbital sinus (following anesthesia for BAL procedure) into tubes containing EDTA anti-coagulant into containers surrounded by dry ice at 0.5, 2 and 4 hr (mean, n=6). Blood samples were stored at −20±5° C. until shipped for analysis.
# The animals were anesthetized with an intramuscular (IM) injection of a ketamine/xylazine/acepromazine (80/10/2 mg/kg) cocktail at a dose volume of 1.1 mL/kg. A cannula (modified Bard® infant feeding tube) was inserted into the trachea. Warmed sterile saline was injected into the lungs. The lungs were gently massaged by palpation of the chest for approximately 45 seconds. The fluid (BALF) was recovered and placed on ice. The procedure was repeated two more times, and all three BALF samples pooled. The fluid was centrifuged under refrigerated conditions at 350 g for 10 minutes. The supernatant and cell pellet were collected and stored at approximately −70° C. until shipped for analysis.
# Immediately following each BAL procedure, the lungs from each animal were removed, blotted dry, weighed, and stored frozen at −70° C. until shipped for analysis.
# An LC/MS/MS method was used to measure the concentration of compound in plasma.
# Add 3×w/v of 1×PBS buffer (90:10-PBS:ACN) to each lung tissue. Homogenize the sample w/Polytron (PT1200) and take 50 uL of supernatant and inject to LC/MSMS.
# An aliquot of 50 μL of each plasma sample was treated with 100 mL of acetonitrile (ACN) containing internal standard. After the protein precipitation, an aliquot of 100 μL of the supernatant was transferred to a clean 96-well plate and mixed with 100 μL of water. An aliquot of 30 μL of the above solution was injected to the TSQ Ultra Quantum LC/MS/MS system.
# A HyPurity C18 HPLC column (30×2.1 mm, 5μ) from ThermoHypersil (Part #: 22105-032130) was used. Mobile phase A contained 1% acetonitrile in 10 mM ammonium formate aqueous solution with 1% formic acid. Mobile phase B contained 80% acetonitrile in 10 mM ammonium formate with 1% formic acid. An Agilent 1100 series binary pump (P/N G1312A Bin Pump) was used for elution and separation. HTS Pal autosampler from LEAP Technologies, Carrboro, N.C. was used.
# TSQ Quantum Ultra triple quadrupole mass spectrometer from Thermo Finnigan, San Jose, Calif. was used in selective reaction monitoring (SRM) operation mode, Tune file:
# [3] = system: ovalbumin-induced lung inflammation; experiment: Mouse ovalbumin model of lung inflammation; type: in vivo, Mice (Balb/c); details: mouse OVA
# Description: Mice (Balb/c) were immunized by intraperitoneal injection of ovalbumin (10 μg OVA suspended in 2 mg aluminum hydroxide) on day 0 and 7. One group was sensitized and treated with vehicle (NSV). One group was immunized with sterile water only and treated with vehicle, e.g. to serve as a nonsensitized (negative) control (Vehicle). […] On days 14 and 15, the animals were exposed to OVA by inhalation (3 h; 5 mg/m^3). Forty eight hours following the last OVA challenge (day 17) mice were sacrificed. Bronchoalveolar lavage (BAL) was taken from each animal to collect cells and fluid. Cell numbers and differentials were calculated from BAL.
# [4] = system: Ascaris suum antigen-induced bronchoconstriction and airway hyperreactivity; experiment: Ascaris suum-induced pulmonary responses in sheep; type: in vivo
# Description: (§1) One breath unit is defined as one breath of a 1% w/v carbachol solution. Test article was administered either by a pre-dosing or duration of action protocol. In the pre-dosing regimen, animals were dosed once daily for four days, with the last dose administered 1 hr before antigen. In the duration of action regimen, animals were dosed once daily for four days, with the last dose administered 24 hours before antigen. Test article, Ascaris antigen, and carbachol were administered by nebulized aerosol to intubated sheep.
# [5] = system: carbachol-induced bronchoconstriction; experiment: Carbachol-induced bronchoconstriction in sheep; type: in vivo; details: Example 52 4.7 mg, Salmeterol 2.5 mg, mean ± s.e.m, n=4
# Description: as §1, with “Bronchoconstriction was evaluated” for “One breath unit is defined”, “a function” for “one breath”, “increased pulmonary resistance following” for “a 1% w/v”, “challenge. […]” for “solution.”, “carbachol challenge.” for “antigen.”, “article” for “article, Ascaris antigen,”
# [6] = system: ragweed-induced bronchoconstriction; experiment: Ragweed-induced bronchoconstriction in dogs; type: in vivo, beagle dogs; details: mean ± s.e.m.
# Description: The compound of Example 52 was assesed for bronchodilator activity in a ragweed-induced bronchoconstriction model in beagle dogs. Dogs were mechanically ventilated during each experiment. Airflow and tidal volume were measured using a differential pressure transducer located in front of the endotracheal tube. An esophageal balloon catheter placed in the esophagus was used to determine transpulmonary pressure. Pulmonary resistance and dynamic lung compliance were calculated from the simultaneous measurement of transpulmonary pressure and respiratory flow. The canine exposure system was designed to expose an anesthetized animal via an intubation tube. Dogs were administered vehicle or test article by inhalation 30 minutes before ragweed antigen exposure (n=4). Dogs were challenged with ragweed antigen (ragweed short, Ambrosia artemisifolia, Greer, Lenoir, N.C.) by inhalation (5 breaths). Immediately following ragweed challenge, changes in pulmonary resistance and compliance were measured for up to 30 minutes.
# [7] = system: LPS-induced airway inflammation; experiment: LPS-induced airway inflammation in rats; type: in vivo, Male Fischer 344 rats; details: for TNFα / Neutrophils: rat BAL, mean ± s.e.m.
# Description: Example 52 was evaluated in an LPS-induced airway inflammation model in rats. Male Fischer 344 rats (n 8/group) were treated with either vehicle or test article by intratracheal instillation in […] volume 1 hour prior to LPS challenge. Animals were then exposed to LPS by nose-only inhalation exposure for 10 minutes at 5 mg/m^3 resulting in an estimated 5 μg lung deposition. Animals were sacrificed 4 hours after LPS exposure. Lungs were lavaged for bronchoalveolar lavage cell differentials and cytokine analysis by Luminex multiplex immunoassay.
# [8] = 3.0 mg/kg IT, 1x/day day 14 and 15
smiles,measurement,setting,value
"CC[N+](CC)(CC(=O)OCC(=O)[C@@]12O[C@H](C3CCCCC3)O[C@@H]1C[C@H]1[C@@H]3CCC4=CC(=O)C=C[C@]4(C)[C@H]3[C@@H](O)C[C@@]12C)Cc1cc(C(O)CNCCCCCCOCCCCc2ccccc2)ccc1OP(=O)(O)O.[Cl-] (stereo partly drawn) [Example 52, [5-[1-hydroxy-2-[6-(4-phenylbutoxy)hexylamino]ethyl]-2-phosphonooxybenzyl]-(diethyl)-[[11β,16α]-[[15,16-((R)-cyclohexylmethylene)bis(oxy)]-11-hydroxypregna-1,4-diene-3,20-dion-21-yl]carbonylmethyl]ammonium chloride]",IL-1α,[1]; 0.6 mg/kg i.t.,2.54 ± 0.59 pg/mL
same,MIP-1α,[1]; 0.6 mg/kg i.t.,4.34 ± 1.15 pg/mL
same,Neutrophils,[1]; 0.6 mg/kg i.t.,7.7 ± 1.8 ×10^4/ml
same,IL-1α,[1]; 1.0 mg/kg i.t.,2.74 ± 0.64 pg/mL
same,MIP-1α,[1]; 1.0 mg/kg i.t.,7.0 ± 1.40 pg/mL
same,Neutrophils,[1]; 1.0 mg/kg i.t.,8.5 ± 1.3 ×10^4/ml
same,Inhibition of tobacco-smoke-induced IL-1α and MIP-1α production,"[1]; p<0.05 versus vehicle control at 1.0 and 0.6 mg/kg doses, 20-plex Luminex assay",exhibited inhibition
same,Metabolism in the lung following IT administration,[2],metabolized to Salmeterol and Desisobutyryl Ciclesonide in the lung
same,"Eosinophils in BAL, Mean",[3]; 0.6 mg/kg IT,367580 mL⁻¹
same,"Neutrophils in BAL, Mean",[3]; 0.6 mg/kg IT,7270 mL⁻¹
same,"Eosinophils in BAL, Mean",[3]; 1.0 mg/kg IT,163320 mL⁻¹
same,"Neutrophils in BAL, Mean",[3]; 1.0 mg/kg IT,5340 mL⁻¹
same,"Eosinophils in BAL, Mean",[3]; [8],57420 mL⁻¹
same,"Neutrophils in BAL, Mean",[3]; [8],10370 mL⁻¹
same,"Bronchoconstriction, Lung Resistance (% Increase)","[4]; Duration of action regimen (last dose 24 hours before antigen), Post-Ascaris, Example 52 4.7 mg, ciclesonide 2.2 mg, salmeterol xinafoate 2.5 mg, n=4",226 % Increase
same,"Bronchoconstriction, Lung Resistance (% Increase)","[4]; Duration of action regimen, 1 hour, n=4",95 % Increase
same,"Bronchoconstriction, Lung Resistance (% Increase)","[4]; Duration of action regimen, 2 hours, n=4",47 % Increase
same,"Bronchoconstriction, Lung Resistance (% Increase)","[4]; Duration of action regimen, 3 hours, n=4",17 % Increase
same,"Bronchoconstriction, Lung Resistance (% Increase)","[4]; Duration of action regimen, 4 hours, n=4",14 % Increase
same,"Bronchoconstriction, Lung Resistance (% Increase)","[4]; Duration of action regimen, 5 hours, n=4",25 % Increase
same,"Bronchoconstriction, Lung Resistance (% Increase)","[4]; Duration of action regimen, 6 hours, n=4",31 % Increase
same,"Bronchoconstriction, Lung Resistance (% Increase)","[4]; Duration of action regimen, 6.5 hours, n=4",26 % Increase
same,"Bronchoconstriction, Lung Resistance (% Increase)","[4]; Duration of action regimen, 7 hours, n=4",26 % Increase
same,"Bronchoconstriction, Lung Resistance (% Increase)","[4]; Duration of action regimen, 7.5 hours, n=4",20 % Increase
same,"Bronchoconstriction, Lung Resistance (% Increase)","[4]; Duration of action regimen, 8 hours, n=4",22 % Increase
same,Hyperreactivity PC400,"[4]; Duration of action regimen, Baseline, Example 52 4.7 mg, ciclesonide 2.2 mg, salmeterol xinafoate 2.5 mg, n=4",27.8 carbachol breath units
same,Hyperreactivity PC400,"[4]; Duration of action regimen, Post-Antigen, n=4",28 carbachol breath units
same,"Bronchoconstriction, Lung Resistance (% Increase)","[4]; Predosing regimen (last dose 1 hr before antigen), Post-Ascaris, Example 52 4.7 mg, ciclesonide 2.2 mg, n=2",220 % Increase
same,"Bronchoconstriction, Lung Resistance (% Increase)","[4]; Predosing regimen, 1 hour, n=2",118 % Increase
same,"Bronchoconstriction, Lung Resistance (% Increase)","[4]; Predosing regimen, 2 hours, n=2",69 % Increase
same,"Bronchoconstriction, Lung Resistance (% Increase)","[4]; Predosing regimen, 3 hours, n=2",34 % Increase
same,"Bronchoconstriction, Lung Resistance (% Increase)","[4]; Predosing regimen, 4 hours, n=2",9 % Increase
same,"Bronchoconstriction, Lung Resistance (% Increase)","[4]; Predosing regimen, 5 hours, n=2",24 % Increase
same,"Bronchoconstriction, Lung Resistance (% Increase)","[4]; Predosing regimen, 6 hours, n=2",34 % Increase
same,"Bronchoconstriction, Lung Resistance (% Increase)","[4]; Predosing regimen, 6.5 hours, n=2",19 % Increase
same,"Bronchoconstriction, Lung Resistance (% Increase)","[4]; Predosing regimen, 7 hours, n=2",23 % Increase
same,"Bronchoconstriction, Lung Resistance (% Increase)","[4]; Predosing regimen, 7.5 hours, n=2",28 % Increase
same,"Bronchoconstriction, Lung Resistance (% Increase)","[4]; Predosing regimen, 8 hours, n=2",14 % Increase
same,Hyperreactivity PC400,"[4]; Predosing regimen, Baseline, Example 52 4.7 mg, ciclesonide 2.2 mg, n=2",27.5 carbachol breath units
same,Hyperreactivity PC400,"[4]; Predosing regimen, Post-Antigen (24 hours after challenge), n=2",26.0 carbachol breath units
same,Effect on early phase bronchoconstriction,[4]; duration of action regimen,reduction
same,Effect on late phase bronchoconstriction and development of airway hyperreactivity,[4]; duration of action regimen,complete inhibition
same,Lung Resistance (% Increase) at 2% Carbachol,"[5]; Duration of action regimen (last dose 24 hours before carbachol), Ciclesonide 2.2 mg + Salmeterol Xinafoate 2.5 mg",450 ± 36 % Increase
same,Lung Resistance (% Increase) at 2% Carbachol,[5]; Predosing regimen (last dose 1 hr before carbachol),335 ± 38 % Increase
same,Pulmonary Resistance (% of Baseline),[6]; 6 μg/kg by inhalation,266.1 ± 19.6 % of Baseline
same,Pulmonary Resistance (% of Baseline),[6]; 20 μg/kg by inhalation,181.2 ± 11.5 % of Baseline
same,TNFα,[7]; 0.6 mg/kg intratracheal,293.6 ± 40.6 pg/mL
same,TNFα,[7]; 1 mg/kg intratracheal,361.7 ± 56.6 pg/mL
same,Neutrophils,"[7]; 3 mg/kg intratracheal, 1 hour prior to LPS",13.5 ± 0.92 × 10^4/ml
same,TNFα,[7]; 3 mg/kg intratracheal,307.0 ± 60.0 pg/mL
same,Neutrophils,[7]; 6 mg/kg intratracheal,6.4 ± 0.41 × 10^4/ml
same,Inhibition of LPS-induced airway inflammation measured as neutrophil influx and TNFα production,"[7]; at doses tested, versus vehicle control",significantly inhibit

# — patent publication US20090318396A1, “CORTICOSTEROID LINKED BETA-AGONIST COMPOUNDS FOR USE IN THERAPY” (priority 2008, published 2009)
